Measured values from US12201643B2, “Mechanochemical dynamic for focal cancer treatment” (THE BOARD OF TRUSTEES OF THE UNIVERSITY OF ILLINOIS, priority 2021, dated 2025).

Key:
[1] = Arrhenius equation; cited from earlier work
[2] = test system: B16F10 mouse skin melanoma cells; format: cell-based
Excerpt: (§1) B16F10 mouse skin melanoma cells were maintained in DMEM (Gibco) supplemented with 10% fetal bovine serum (FBS, Corning), penicillin and streptomycin (Thermo Fisher). B16F10 cells were a generous gift from Dr. Edward Roy at the University of Illinois at Urbana-Champaign. E0771 mouse breast cancer cells (CH3 BioSystems) were maintained in RPMI-1640 (Gibco) supplemented with 10% FBS (Corning), penicillin and streptomycin (Thermo Fisher). For free-radical challenge experiments, 0.05% trypsin dissociated cells were counted and 1×10^4 cells per well were seeded in cell culture-treated 6 well plates (Thermo Fisher) 24 hours before the start of the experiment. […] Cells were then incubated up to 72 hours without media change and counted every 24 hours. […] Staining solution was then replaced by PBS and the cells were imaged on an Olympus inverted fluorescence microscope with 4× objective and FITC filter set. […] Live cells positively stained by Calcein-AM were counted using FIJI (NIH) and averaged over 4 counting fields per well at each time point (FIG. 12). For each image, only the green channel was analyzed. […] Using “Analyze Particles,” the distinct white areas from size 20 (to exclude small artifacts and debris) to size infinity were counted. Cell counts were then compiled and analyzed in Microsoft Excel. […]

[3] = test system: E0771 mouse breast cancer cells; format: cell-based
Excerpt: as §1

Row | SMILES | activation energy Ea of azo group decomposition [1] [kcal/mol] | pre-exponential factor A of azo group decomposition [1] [s⁻¹] | lethal dosage (positive control) [2] [µM] | lethal dosage (positive control) [3] [µM]
1 | CC(C#N)(CCC(=O)O)N=NC(C)(C#N)CCC(=O)O (stereo not shown) [ACVA, 4,4′-azobis (4-cyanovaleric acid)] | 31.76 | 6.21e+15 |  | 
2 | OO [H2O2, hydrogen peroxide] |  |  | ~50 | ~30
